For this assay, the target named is T1, Recombinant human TPH1 (MBP tagged) (Homo sapiens, UniProt P17752).
T1 construct: cloning full length human TPH1 cDNA in to a bacterial pMAL-c5E expression vector; made in house; host or cells: E. coli BL21 (DE3)
T1 sequence (P17752 1-444): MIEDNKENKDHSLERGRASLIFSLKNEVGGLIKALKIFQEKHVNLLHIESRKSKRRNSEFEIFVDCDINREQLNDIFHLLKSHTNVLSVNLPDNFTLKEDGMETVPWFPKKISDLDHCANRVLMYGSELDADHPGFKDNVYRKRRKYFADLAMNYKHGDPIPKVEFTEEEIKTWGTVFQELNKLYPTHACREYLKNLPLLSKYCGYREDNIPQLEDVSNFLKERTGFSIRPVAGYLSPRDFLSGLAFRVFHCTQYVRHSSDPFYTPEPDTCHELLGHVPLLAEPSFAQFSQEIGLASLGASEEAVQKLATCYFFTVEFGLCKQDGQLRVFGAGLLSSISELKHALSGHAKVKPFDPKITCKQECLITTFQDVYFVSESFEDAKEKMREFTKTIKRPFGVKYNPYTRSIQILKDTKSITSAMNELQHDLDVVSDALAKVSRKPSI
The assay can be described thus: TPH1 in vitro inhibition assay (kinetic fluorescence). It is filed as biochemical. The settings on record: read-out: TPH1 Range (TPH1 inhibition IC50). The essentials: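 Final mix: 15 nM MBP-TPH1, 30 μM Trp, 36 μM 6-methyltetrahydropterin, 25 μM ferrous ammonium sulfate, 50 mM MES pH 7.1, 1% DMSO, room temperature.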

As to `Nc1nc(O[C@H](c2ccc(-c3ccc(C(=O)N4CCCC4)cc3)cc2)C(F)(F)F)cc(N2CCC3(CC2)CN[C@H](C(=O)O)C3)n1` [Example 55bp, (S)-8-(2-amino-6-((R)-2,2,2-trifluoro-1-(4′-(pyrrolidine-1-carbonyl)-[1,1′-biphenyl]-4-yl)ethoxy)pyrimidin-4-yl)-2,8-diazaspiro[4.5]decane-3-carboxylic acid], the IC50 – broadly, the point on the concentration scale where inhibition reaches its midpoint – fell in the range of 0.05 to 0.3 µM. In the case of `Nc1nc(O[C@H](c2ccc(-c3cccc(C(=O)O)c3)cc2)C(F)(F)F)cc(N2CCC3(CC2)CN[C@H](C(=O)O)C3)n1` [Example 55bq, (S)-8-(2-amino-6-((R)-1-(3′-carboxy-[1,1′-biphenyl]-4-yl)-2,2,2-trifluoroethoxy)pyrimidin-4-yl)-2,8-diazaspiro[4.5]decane-3-carboxylic acid] it was 0.3 to 3 µM; in that of `Nc1nc(O[C@H](c2ccc(-c3ccc(C(=O)O)cc3)cc2)C(F)(F)F)cc(N2CCC3(CC2)CN[C@H](C(=O)O)C3)n1` [Example 55br, (S)-8-(2-amino-6-((R)-1-(4′-carboxy-[1,1′-biphenyl]-4-yl)-2,2,2-trifluoroethoxy)pyrimidin-4-yl)-2,8-diazaspiro[4.5]decane-3-carboxylic acid], 0.3 to 3 µM; in that of `CCCc1ccc(-c2ccc([C@@H](Oc3cc(N4CCC5(CC4)CN[C@H](C(=O)O)C5)nc(N)n3)C(F)(F)F)cc2)cc1` [Example 55bs, (S)-8-(2-amino-6-((R)-2,2,2-trifluoro-1-(4′-propyl-[1,1′-biphenyl]-4-yl)ethoxy)pyrimidin-4-yl)-2,8-diazaspiro[4.5]decane-3-carboxylic acid], 0.3 to 3 µM. In the case of `Nc1nc(O[C@H](c2ccc(-c3cccc(CO)c3)cc2)C(F)(F)F)cc(N2CCC3(CC2)CN[C@H](C(=O)O)C3)n1` [Example 55bt, (S)-8-(2-amino-6-((R)-2,2,2-trifluoro-1-(3′-(hydroxymethyl)-[1,1′-biphenyl]-4-yl)ethoxy)pyrimidin-4-yl)-2,8-diazaspiro[4.5]decane-3-carboxylic acid] it was 0.3 to 3 µM; in that of `Nc1nc(O[C@H](c2ccc(-c3ccccc3CO)cc2)C(F)(F)F)cc(N2CCC3(CC2)CN[C@H](C(=O)O)C3)n1` [Example 55bu, (S)-8-(2-amino-6-((R)-2,2,2-trifluoro-1-(2′-(hydroxymethyl)-[1,1′-biphenyl]-4-yl)ethoxy)pyrimidin-4-yl)-2,8-diazaspiro[4.5]decane-3-carboxylic acid], 0.3 to 3 µM. On to `CC(C)Oc1ccc(-c2ccc([C@@H](Oc3cc(N4CCC5(CC4)CN[C@H](C(=O)O)C5)nc(N)n3)C(F)(F)F)cc2)cc1` [Example 55bv, (S)-8-(2-amino-6-((R)-2,2,2-trifluoro-1-(4′-isopropoxy-[1,1′-biphenyl]-4-yl)ethoxy)pyrimidin-4-yl)-2,8-diazaspiro[4.5]decane-3-carboxylic acid], for which the IC50 lay within 0.3 to 3 µM. For `CN(C)C(=O)c1ccc(-c2ccc([C@@H](Oc3cc(N4CCC5(CC4)CN[C@H](C(=O)O)C5)nc(N)n3)C(F)(F)F)cc2)cc1` [Example 55bw, (S)-8-(2-amino-6-((R)-1-(4′-(dimethylcarbamoyl)-[1,1′-biphenyl]-4-yl)-2,2,2-trifluoroethoxy)pyrimidin-4-yl)-2,8-diazaspiro[4.5]decane-3-carboxylic acid], the 50% inhibitory concentration (IC50) fell in the range of 0.05 to 0.3 µM. Take `Nc1nc(O[C@H](c2ccc(-c3cccc(C(=O)N4CCCCC4)c3)cc2)C(F)(F)F)cc(N2CCC3(CC2)CN[C@H](C(=O)O)C3)n1` [Example 55bx, (S)-8-(2-amino-6-((R)-2,2,2-trifluoro-1-(3′-(piperidine-1-carbonyl)-[1,1′-biphenyl]-4-yl)ethoxy)pyrimidin-4-yl)-2,8-diazaspiro[4.5]decane-3-carboxylic acid]: the IC50 fell in the range of 0.3 to 3 µM. The result for `CN(C)Cc1ccccc1-c1ccc([C@@H](Oc2cc(N3CCC4(CC3)CN[C@H](C(=O)O)C4)nc(N)n2)C(F)(F)F)cc1` [Example 55by, (S)-8-(2-amino-6-((R)-1-(2′-((dimethylamino)methyl)-[1,1′-biphenyl]-4-yl)-2,2,2-trifluoroethoxy)pyrimidin-4-yl)-2,8-diazaspiro[4.5]decane-3-carboxylic acid] reads 0.3 to 3 µM. In the case of `CCc1ccc(-c2ccc([C@@H](Oc3cc(N4CCC5(CC4)CN[C@H](C(=O)O)C5)nc(N)n3)C(F)(F)F)cc2)cc1` [Example 55bz, (S)-8-(2-amino-6-((R)-1-(4′-ethyl-[1,1′-biphenyl]-4-yl)-2,2,2-trifluoroethoxy)pyrimidin-4-yl)-2,8-diazaspiro[4.5]decane-3-carboxylic acid], the IC50 was in the range of 0.05 to 0.3 µM.

Turning to `Cn1cnc2cc(-c3ccc([C@@H](Oc4cc(N5CCC6(CC5)CN[C@H](C(=O)O)C6)nc(N)n4)C(F)(F)F)cc3)ccc21` [Example 55c, (S)-8-(2-amino-6-((R)-2,2,2-trifluoro-1-(4-(1-methyl-1H-benzo[d]imidazol-5-yl)phenyl)ethoxy)pyrimidin-4-yl)-2,8-diazaspiro[4.5]decane-3-carboxylic acid], the IC50 lay within 0.05 to 0.3 µM. As to `Nc1nc(O[C@H](c2ccc(-c3cccc(O)c3)cc2)C(F)(F)F)cc(N2CCC3(CC2)CN[C@H](C(=O)O)C3)n1` [Example 55ca, (S)-8-(2-amino-6-((R)-2,2,2-trifluoro-1-(3′-hydroxy-[1,1′-biphenyl]-4-yl)ethoxy)pyrimidin-4-yl)-2,8-diazaspiro[4.5]decane-3-carboxylic acid], the 50% inhibitory concentration (IC50) is 0.05 to 0.3 µM. `Nc1nc(O[C@H](c2ccc(-c3ccc(O)cc3)cc2)C(F)(F)F)cc(N2CCC3(CC2)CN[C@H](C(=O)O)C3)n1` [Example 55cb, (S)-8-(2-amino-6-((R)-2,2,2-trifluoro-1-(4′-hydroxy-[1,1′-biphenyl]-4-yl)ethoxy)pyrimidin-4-yl)-2,8-diazaspiro[4.5]decane-3-carboxylic acid]: the IC50 is 0.05 to 0.3 µM. Take `COc1ccc(-c2ccc([C@@H](Oc3cc(N4CCC5(CC4)CN[C@H](C(=O)O)C5)nc(N)n3)C(F)(F)F)cc2)c(OC)c1` [Example 55cc, (S)-8-(2-amino-6-((R)-1-(2′,4′-dimethoxy-[1,1′-biphenyl]-4-yl)-2,2,2-trifluoroethoxy)pyrimidin-4-yl)-2,8-diazaspiro[4.5]decane-3-carboxylic acid]: the 50% inhibitory concentration (IC50) was 0.05 to 0.3 µM. Turning to `Nc1nc(O[C@H](c2ccc(-c3ccc(C(F)(F)F)cc3)cc2)C(F)(F)F)cc(N2CCC3(CC2)CN[C@H](C(=O)O)C3)n1` [Example 55cd, (S)-8-(2-amino-6-((R)-2,2,2-trifluoro-1-(4′-(trifluoromethyl)-[1,1′-biphenyl]-4-yl)ethoxy)pyrimidin-4-yl)-2,8-diazaspiro[4.5]decane-3-carboxylic acid], the 50% inhibitory concentration (IC50) lay in the range of 0.3 to 3 µM.

Take `Nc1nc(O[C@H](c2ccc(-c3ccccc3C(F)(F)F)cc2)C(F)(F)F)cc(N2CCC3(CC2)CN[C@H](C(=O)O)C3)n1` [Example 55ce, (S)-8-(2-amino-6-((R)-2,2,2-trifluoro-1-(2′-(trifluoromethyl)-[1,1′-biphenyl]-4-yl)ethoxy)pyrimidin-4-yl)-2,8-diazaspiro[4.5]decane-3-carboxylic acid]: the IC50 is 0.3 to 3 µM.

In the case of `Nc1nc(O[C@H](c2ccc(-c3c(F)cccc3F)cc2)C(F)(F)F)cc(N2CCC3(CC2)CN[C@H](C(=O)O)C3)n1` [Example 55cf, (S)-8-(2-amino-6-((R)-1-(2′,6′-difluoro-[1,1′-biphenyl]-4-yl)-2,2,2-trifluoroethoxy)pyrimidin-4-yl)-2,8-diazaspiro[4.5]decane-3-carboxylic acid], the half-maximal inhibitory concentration (IC50) was 3 to 10 µM.

These data come from patent publication US11759462B2, “Spirocyclic compounds as tryptophan hydroxylase inhibitors” (priority 2013, dated 2023).
